# From patent US20240041042A1, “1-(PYRIDYL)-5-AZINYLPYRAZOLE DERIVATIVES, AND THEIR USE FOR CONTROL OF UNDESIRED PLANT GROWTH” (Bayer Aktiengesellschaft, priority 2020, published 2024)
# Key:
# Assay type in all cases: in vivo
# [1] = tested on: Abutilon theophrasti (ABUTH); test: Pre-emergence herbicidal action against ABUTH; details: 100% = plants have died
# Source text: Seeds of monocotyledonous and dicotyledonous weed plants and crop plants are placed in plastic or organic planting pots and covered with soil. The compounds of the invention, formulated in the form of wettable powders (WP) or as emulsion concentrates (EC), are then applied to the surface of the covering soil as aqueous suspension or emulsion with addition of 0.5% additive at a water application rate equivalent to 600 l/ha. After the treatment, the pots are placed in a greenhouse and kept under good growth conditions for the trial plants. After about 3 weeks, the effect of the preparations is scored visually in comparison with untreated controls as percentages. For example, 100% activity=the plants have died, 0% activity=like control plants.
# Tables A1 to A13 below show the effects of selected compounds of the general formula (I) on various harmful plants and at an application rate corresponding to 320 g/ha or lower, which were obtained by the experimental procedure mentioned above. The appendices “a”, “b” and “c” give differentiation by dosage used with otherwise the same harmful plants tested.
# [2] = tested on: Alopecurus myosuroides (ALOMY); test: Pre-emergence herbicidal action against ALOMY; details: 320 g/ha; scored visually after about 3 weeks; 100% = plants have died
# Summary of the method: (§1)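 Herbicide applied to soil before seedling emergence, at 600 l/ha spray volume with 0.5% additive and rates up to 320 g/ha. Evaluation: visual percentage effect, about 3 weeks later, greenhouse-grown pots compared with untreated ones.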
# [3] = tested on: Amaranthus retroflexus (AMARE); test: Pre-emergence herbicidal action against AMARE; details: visual scoring after about 3 weeks vs untreated controls
# Summary of the method: as §1
# [4] = tested on: Avena fatua (AVEFA); test: Pre-emergence herbicidal action against AVEFA; details: 320 g/ha, visual scoring after about 3 weeks vs untreated controls
# Summary of the method: as §1
# [5] = tested on: Echinochloa crus-galli (ECHCG); test: Pre-emergence herbicidal action against ECHCG
# Summary of the method: as §1
# [6] = tested on: Lolium rigidum (LOLRI); test: Pre-emergence herbicidal action against LOLRI
# Summary of the method: as §1
# [7] = tested on: Matricaria inodora (MATIN); test: Pre-emergence herbicidal action against MATIN; details: dosage 320 g/ha
# Summary of the method: as §1
# [8] = tested on: Pharbitis purpurea (PHBPU); test: Pre-emergence herbicidal action against PHBPU; details: dosage 320 g/ha
# Summary of the method: as §1
# [9] = tested on: Polygonum convolvulus (POLCO); test: Pre-emergence herbicidal action against POLCO
# Summary of the method: as §1
# [10] = tested on: Setaria viridis (SETVI); test: Pre-emergence herbicidal action against SETVI; details: dosage 320 g/ha
# Summary of the method: as §1
# [11] = tested on: Verconica persica (VERPE); test: Pre-emergence herbicidal action against VERPE
# Summary of the method: as §1
# [12] = tested on: Viola tricolor (VIOTR); test: Pre-emergence herbicidal action against VIOTR
# Summary of the method: as §1
# [13] = tested on: Abutilon theophrasti (ABUTH); test: Post-emergence herbicidal action against ABUTH; details: visual rating about 3 weeks after treatment vs untreated controls (100% = plants have died, 0% = like control plants)
# Summary of the method: (§2)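 Post-emergence greenhouse spray, one-leaf stage, 600 l/ha water plus 0.5% additive; WP or EC formulations; application rates 320 g/ha or lower. Visual % damage vs untreated controls at ~3 weeks.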
# [14] = tested on: Alopecurus myosuroides (ALOMY); test: Post-emergence herbicidal action against ALOMY; details: visual rating about 3 weeks after treatment vs untreated controls (100% = plants have died, 0% = like control plants)
# Summary of the method: as §2
# [15] = tested on: Amaranthus retroflexus (AMARE); test: Post-emergence herbicidal action against AMARE
# Summary of the method: as §2
# [16] = tested on: Avena fatua (AVEFA); test: Post-emergence herbicidal action against AVEFA; details: visual rating about 3 weeks after treatment
# Summary of the method: as §2
# [17] = tested on: Echinochloa crus-galli (ECHCG); test: Post-emergence herbicidal action against ECHCG
# Summary of the method: as §2
# [18] = tested on: Lolium rigidum (LOLRI); test: Post-emergence herbicidal action against LOLRI
# Summary of the method: as §2
# [19] = tested on: Pharbitis purpurea (PHBPU); test: Post-emergence herbicidal action against PHBPU
# Summary of the method: as §2
# [20] = tested on: Setaria viridis (SETVI); test: Post-emergence herbicidal action against SETVI; details: dosage 320 g/ha
# Summary of the method: as §2
# [21] = tested on: Verconica persica (VERPE); test: Post-emergence herbicidal action against VERPE; details: 320 g/ha, VERPE
# Summary of the method: as §2
# [22] = tested on: Viola tricolor (VIOTR); test: Post-emergence herbicidal action against VIOTR; details: 320 g/ha
# Summary of the method: as §2
# [23] = tested on: Oryza sativa (ORYSA); details: crop plant compatibility, 80 g/ha, effect in comparison to untreated controls
# Summary of the method: (§3)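 Test crops were treated 2 to 3 weeks after sowing, once they reached one leaf, by spraying compound in water with 0.5% additive at 600 l/ha. Visual scoring compared them with untreated controls roughly 3 weeks on, and appendices a, b and c denote different doses.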
# [24] = tested on: Zea mays (ZEAMX); details: crop plant compatibility, 80 g/ha, effect vs untreated controls
# Summary of the method: as §3
smiles,measurement,setting,value
COC(=O)[C@@H](C)Oc1nn(-c2nc(F)ccc2F)c(-c2ccc(F)nc2)c1Cl [Example I-332],Pre-emergence action against ABUTH,"[1]; 80 g/ha, scored visually after about 3 weeks vs untreated controls, 0% = like control plants",80%
same,Pre-emergence action against ABUTH,"[1]; Dosage column 320 g/ha (title prints 3200 g/ha), scored visually after about 3 weeks",80%
same,Pre-emergence action against ALOMY,[2],100%
same,Pre-emergence action against AMARE in %,[3]; 80 g/ha,80%
same,Pre-emergence action against AMARE in %,[3]; 320 g/ha,100%
same,Pre-emergence action against AVEFA in %,[4],100%
same,Pre-emergence action against ECHCG in %,[5]; dosage 80 g/ha,80%
same,Pre-emergence action against ECHCG in %,[5]; dosage 320 g/ha,100%
same,Pre-emergence action against LOLRI in %,[6]; dosage 80 g/ha,90%
same,Pre-emergence action against LOLRI in %,[6]; dosage 320 g/ha,100%
same,Pre-emergence action against MATIN in %,[7],90%
same,Pre-emergence action against PHBPU in %,[8],100%
same,Pre-emergence action against POLCO in %,[9]; dosage 80 g/ha,80%
same,Pre-emergence action against POLCO in %,[9]; dosage 320 g/ha,80%
same,Pre-emergence action against SETVI in %,[10],100%
same,Pre-emergence action against VERPE in %,[11]; dosage 80 g/ha,80%
same,Pre-emergence action against VERPE in %,[11]; dosage 320 g/ha,90%
same,Pre-emergence action against VIOTR in %,"[12]; 320 g/ha, Viola tricolor",100%
same,Pre-emergence action against VIOTR in %,[12]; dosage 80 g/ha,90%
same,Post-emergence action against ABUTH in %,[13]; 80 g/ha,80%
same,Post-emergence action against ABUTH in %,[13]; 320 g/ha,80%
same,Post-emergence action against ALOMY in %,[14]; 80 g/ha,80%
same,Post-emergence action against ALOMY in %,[14]; 320 g/ha,90%
same,Post-emergence action against AMARE in %,"[15]; 80 g/ha, visual rating about 3 weeks after treatment vs untreated controls (100% = plants have died, 0% = like control plants)",80%
same,Post-emergence action against AMARE in %,"[15]; 320 g/ha, visual rating about 3 weeks after treatment",80%
same,Post-emergence action against AVEFA in %,[16]; 80 g/ha,80%
same,Post-emergence action against AVEFA in %,[16]; 320 g/ha,90%
same,Post-emergence action against ECHCG in %,[17]; dosage 80 g/ha,80%
same,Post-emergence action against ECHCG in %,[17]; dosage 320 g/ha,90%
same,Post-emergence action against LOLRI in %,[18]; dosage 80 g/ha,80%
same,Post-emergence action against LOLRI in %,[18]; dosage 320 g/ha,90%
same,Post-emergence action against PHBPU in %,[19]; dosage 80 g/ha,80%
same,Post-emergence action against PHBPU in %,[19]; dosage 320 g/ha,80%
same,Post-emergence action against SETVI in %,[20],80%
same,Post-emergence action against VERPE in %,[21],80%
same,Post-emergence action against VIOTR in %,[22],80%
same,Post-emergence action against ORYSA in %,[23],20%
same,Post-emergence action against ZEAMX in %,[24],10%
